Experimental data taken from patent publication US7208500B2, “Thienopyridine-phenylacetamides and their derivatives useful as new anti-angiogenic agents” (Agouron Pharmaceuticals, Inc., priority 2003, dated 2007).

Experiments:
[1] = test system: human umbilical vein endothelial cells (HUVEC); experiment: HUVEC + VEGF proliferation assay; type: cell-based; details: VEGF-stimulated proliferation, final VEGF 6 ng/mL, 72 hours, MTT
Method: This assay determines the ability of a test compound to inhibit the growth factor-stimulated proliferation of human umbilical vein endothelial cells (“HUVEC”). HUVEC cells (passage 3–4, Clonetics, Corp.) were thawed into EGM2 culture medium (Clonetics Corp) in T75 flasks. Fresh EGM2 medium was added to the flasks 24 hours later. Four or five days later, cells were exposed to another culture medium (F12K medium supplemented with 10% fetal bovine serum (FBS), […] endothelial cell growth supplement (ECGS), and 0.1 mg/mL heparin). Exponentially-growing HUVEC cells were used in experiments thereafter. Ten to twelve thousand HUVEC cells were plated in 96-well dishes in […] of rich, culture medium (described above). The cells were allowed to attach for 24 hours in this medium. The medium was then removed by aspiration and […] of starvation media (F12K+1% FBS) was added to each well. After 24 hours, […] of test agent dissolved in 1% DMSO in starvation medium or this vehicle alone was added into each treatment well; the final DMSO concentration was 0.1%. One hour later, […] of VEGF (30 ng/mL) in starvation media was added to all wells except those containing untreated controls; the final VEGF concentration was 6 ng/mL. Cellular proliferation was quantified 72 hours later by MTT dye reduction, at which time cells were exposed for 4 hours MTT (Promega Corp.). Dye reduction was stopped by addition of a stop solution (Promega Corp.) and absorbance at 595 nm was determined on a 96-well spectrophotometer plate reader.

[2] = target: T1, FGF-R1 intracellular kinase domain (Homo sapiens, UniProt P11362, C488A/C584S/L457V); experiment: FGF-R spectrophotometric assay; type: biochemical; details: 50 nM test compound; read-out: FGF-P (% inh @ 50 nM)
T1 construct: starting from the endogenous methionine residue 456 to glutamate 766; made in house; host or cells: baculovirus vector expression system
T1 sequence (P11362 456-766 L457V/C488A/C584S): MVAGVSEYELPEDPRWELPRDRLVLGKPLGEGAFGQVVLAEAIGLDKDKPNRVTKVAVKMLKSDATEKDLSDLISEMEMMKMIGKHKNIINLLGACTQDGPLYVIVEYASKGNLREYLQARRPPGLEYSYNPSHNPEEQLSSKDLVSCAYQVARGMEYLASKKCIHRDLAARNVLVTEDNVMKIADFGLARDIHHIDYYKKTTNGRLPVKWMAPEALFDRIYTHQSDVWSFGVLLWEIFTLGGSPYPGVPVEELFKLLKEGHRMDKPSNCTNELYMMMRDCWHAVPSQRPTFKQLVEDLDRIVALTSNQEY
In short: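 Human FGF-R1 kinase domain (Met456–Glu766, L457V/C488A/C584S) expressed in baculovirus. Spectrophotometric kinase assay run as for VEGF-R2 with 50 nM FGF-R, 2 mM ATP and 15 mM poly(E4Y1).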

[3] = target: T2, unphosphorylated VEGF-R2D50 (FLVK), cytosolic domain of human VEGF-R2 (Homo sapiens, UniProt P35968, DEL940-989/E990V); experiment: VEGF-R2 coupled spectrophotometric assay (FLVK); type: biochemical
T2 construct: VEGF-R2D50 contains residues 806–939 and 990–1171; made in house; host or cells: baculovirus/insect cell system
T2 sequence (P35968 with tags, fused parts or gaps DEL940-989/E990V limits assumed): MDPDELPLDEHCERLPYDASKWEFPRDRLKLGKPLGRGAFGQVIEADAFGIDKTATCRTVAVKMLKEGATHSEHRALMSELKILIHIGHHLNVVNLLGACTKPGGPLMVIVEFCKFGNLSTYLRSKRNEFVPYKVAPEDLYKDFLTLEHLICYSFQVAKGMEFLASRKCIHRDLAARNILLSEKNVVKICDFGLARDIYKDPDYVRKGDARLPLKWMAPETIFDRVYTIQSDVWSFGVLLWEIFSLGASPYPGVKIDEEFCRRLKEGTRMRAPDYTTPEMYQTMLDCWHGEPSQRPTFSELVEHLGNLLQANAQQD
In short: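 Unphosphorylated VEGF-R2D50 (5–40 nM, baculovirus-expressed) was assayed with 3 mM ATP, 20 mM poly(E4Y1), 60 mM MgCl2 and 2 mM MnCl2 in HEPES pH 7.5. ADP formation was coupled via PK/LDH to NADH oxidation and followed at A340. Ki came from activity at varying compound concentrations fitted by the Morrison equation.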

Structure (SMILES)	IC50 [1]	inhibition at 0.05 µM [2]	Ki [3]
Cc1cc(C)nc(NC(=O)Cc2ccc(Oc3ccnc4cc(C(=O)N5CCC5)sc34)cc2Cl)c1 [Example 49, 2-{4-[2-(Azetidine-1-carbonyl)-thieno[3,2-b]pyridin-7-yloxy]-2-chloro-phenyl}-N-(4,6-dimethyl-pyridin-2-yl)-acetamide]	1 to 10 nM	> 10%	< 1 nM
O=C(Cc1ccc(Oc2ccnc3cc(C(=O)N4CCC4)sc23)cc1Cl)Nc1ccc(Cl)cn1 [Example 50, 2-{4-[2-(Azetidine-1-carbonyl)-thieno[3,2-b]pyridin-7-yloxy]-2-chloro-phenyl}-N-(5-chloro-pyridin-2-yl)-acetamide]	> 10 nM	> 10%	1 to 10 nM
O=C(Cc1ccc(Oc2ccnc3cc(C(=O)N4CCC4)sc23)cc1Cl)Nc1ccccn1 [Example 51, 2-{4-[2-(Azetidine-1-carbonyl)-thieno[3,2-b]pyridin-7-yloxy]-2-chloro-phenyl}-N-pyridin-2-yl-acetamide]	> 10 nM	0 to 5%	1 to 10 nM
Cc1cc(NC(=O)Cc2ccc(Oc3ccnc4cc(C(=O)N5CCC5)sc34)cc2Cl)no1 [Example 52, 2-{4-[2-(Azetidine-1-carbonyl)-thieno[3,2-b]pyridin-7-yloxy]-2-chloro-phenyl}-N-(5-methyl-isoxazol-3-yl)-acetamide]	> 10 nM	> 10%	1 to 10 nM
Cc1cc(NC(=O)Cc2ccc(Oc3ccnc4cc(C(=O)N5CCC5)sc34)cc2Cl)on1 [Example 53, 2-{4-[2-(Azetidine-1-carbonyl)-thieno[3,2-b]pyridin-7-yloxy]-2-chloro-phenyl}-N-(3-methyl-isoxazol-5-yl)-acetamide]	1 to 10 nM	0 to 5%	< 1 nM
Cc1cc(NC(=O)Cc2ccc(Oc3ccnc4cc(C(=O)N5CCC5)sc34)cc2Cl)n[nH]1 [Example 55, 2-{4-[2-(Azetidine-1-carbonyl)-thieno[3,2-b]pyridin-7-yloxy]-2-chloro-phenyl}-N-(5-methyl-1H-pyrazol-3-yl)-acetamide]	< 1 nM	0 to 5%	< 1 nM
Cn1ccnc1-c1cc2nccc(Oc3ccc(CC(=O)Nc4ccccn4)c(Cl)c3)c2s1 [Example 60, 2-{2-Chloro-4-[2-(1-methyl-1H-imidazol-2-yl)-thieno[3,2-b]pyridin-7-yloxy]-phenyl}-N-pyridin-2-yl-acetamide]	> 10 nM	0 to 5%	1 to 10 nM
O=C(Cc1ccc(Oc2ccnc3cc(C(=O)N4CC[C@@H](O)C4)sc23)cc1Cl)Nc1ccccn1 [Example 61, 2-{2-Chloro-4-[2-((R)-3-hydroxy-pyrrolidine-1-carbonyl)-thieno[3,2-b]pyridin-7-yloxy]-phenyl}-N-pyridin-2-yl-acetamide]	> 10 nM	0 to 5%	1 to 10 nM
CO[C@@H]1CCN(C(=O)c2cc3nccc(Oc4ccc(CC(=O)Nc5ccccn5)c(Cl)c4)c3s2)C1 [Example 62, 2-{2-Chloro-4-[2-((R)-3-methoxy-pyrrolidine-1-carbonyl)-thieno[3,2-b]pyridin-7-yloxy]-phenyl}-N-pyridin-2-yl-acetamide]	> 10 nM	0 to 5%	1 to 10 nM
C=C(C(=O)NC)c1ccc(Oc2ccnc3cc(C(=O)N4CC[C@@H](O)C4)sc23)cc1 [Example 66, 2-{4-[2-((R)-3-Hydroxy-pyrrolidine-1-carbonyl)-thieno[3,2-b]pyridin-7-yloxy]-phenyl}-N-methyl-acrylamide]	> 10 nM	0 to 5%	> 10 nM
CNC(=O)Cc1ccc(Oc2ccnc3cc(C(=O)N4CC[C@@H](O)C4)sc23)cc1 [Example 69, 2-{4-[2-((R)-3-Hydroxy-pyrrolidine-1-carbonyl)-thieno[3,2-b]pyridin-7-yloxy]-phenyl}-N-methyl-acetamide]	> 10 nM	0 to 5%	> 10 nM
CNC(=O)C(O)c1ccc(Oc2ccnc3cc(C(=O)N4CCC4)sc23)cc1 (stereo not drawn) [Example 74, 2-{4-[2-(Azetidine-1-carbonyl)-thieno[3,2-b]pyridin-7-yloxy]-phenyl}-2-hydroxy-N-methyl-acetamide]	> 10 nM	0 to 5%	1 to 10 nM
CNC(=O)C(O)c1ccc(Oc2ccnc3cc(C(=O)N4CC[C@@H](O)C4)sc23)cc1 (stereo partly drawn) [Example 76, 2-Hydroxy-2-{4-[2-((R)-3-hydroxy-pyrrolidine-1-carbonyl)-thieno[3,2-b]pyridin-7-yloxy]-phenyl}-N-methyl-acetamide]	> 10 nM	0 to 5%	1 to 10 nM
CCCCNC(=O)Oc1ccc(Oc2ccnc3cc(C(=O)N4CCC4)sc23)cc1 [Example 86, butyl-carbamic acid 4-[2-(azetidine-1-carbonyl)-thieno[3,2-b]pyridin-7-yloxy]-phenyl ester]	< 1 nM	0 to 5%	1 to 10 nM
COc1ccc2c(Oc3ccc(CC(=O)Nc4ccc(Cl)cn4)cc3)ccnc2c1 [Example 87, N-(5-Chloro-pyridin-2-yl)-2-[4-(7-methoxy-quinolin-4-yloxy)-phenyl]-acetamide]	> 10 nM	0 to 5%	1 to 10 nM
